Measured values from ChEMBL document CHEMBL1201862, “PubChem BioAssay data set” (2004).
Calls of active or inactive are those of the source.

Key:
Cytochrome P450 1A2 = target: T1, Cytochrome P450 1A2 (Homo sapiens, UniProt P05177);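 also: PubChem cytochrome P450 panel assay, CYP1A2 panel member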
T1 sequence (P05177 whole entry): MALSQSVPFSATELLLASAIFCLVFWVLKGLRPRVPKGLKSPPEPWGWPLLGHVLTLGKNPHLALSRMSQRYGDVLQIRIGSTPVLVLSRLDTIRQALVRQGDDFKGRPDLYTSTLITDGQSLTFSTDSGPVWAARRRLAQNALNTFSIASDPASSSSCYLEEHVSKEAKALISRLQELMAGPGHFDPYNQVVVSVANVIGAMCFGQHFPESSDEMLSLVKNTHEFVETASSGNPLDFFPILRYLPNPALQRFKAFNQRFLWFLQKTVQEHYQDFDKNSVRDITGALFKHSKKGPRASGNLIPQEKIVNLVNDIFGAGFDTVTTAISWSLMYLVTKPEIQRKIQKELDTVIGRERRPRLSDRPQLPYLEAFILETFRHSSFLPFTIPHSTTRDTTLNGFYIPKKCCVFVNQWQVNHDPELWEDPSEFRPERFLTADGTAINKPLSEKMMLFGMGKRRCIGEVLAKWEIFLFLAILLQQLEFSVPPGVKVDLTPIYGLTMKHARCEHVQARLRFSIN

Cytochrome P450 2C19 = Cytochrome P450 2C19 (Homo sapiens, UniProt P33261); experiment: Cytochrome panel assay with activity outcomes. Panel member name: p450-cyp2c19 Compounds with AC50 equal or less than 10 uM are considered active; assay type: functional
Cytochrome P450 2C19, sequence (P33261 whole entry): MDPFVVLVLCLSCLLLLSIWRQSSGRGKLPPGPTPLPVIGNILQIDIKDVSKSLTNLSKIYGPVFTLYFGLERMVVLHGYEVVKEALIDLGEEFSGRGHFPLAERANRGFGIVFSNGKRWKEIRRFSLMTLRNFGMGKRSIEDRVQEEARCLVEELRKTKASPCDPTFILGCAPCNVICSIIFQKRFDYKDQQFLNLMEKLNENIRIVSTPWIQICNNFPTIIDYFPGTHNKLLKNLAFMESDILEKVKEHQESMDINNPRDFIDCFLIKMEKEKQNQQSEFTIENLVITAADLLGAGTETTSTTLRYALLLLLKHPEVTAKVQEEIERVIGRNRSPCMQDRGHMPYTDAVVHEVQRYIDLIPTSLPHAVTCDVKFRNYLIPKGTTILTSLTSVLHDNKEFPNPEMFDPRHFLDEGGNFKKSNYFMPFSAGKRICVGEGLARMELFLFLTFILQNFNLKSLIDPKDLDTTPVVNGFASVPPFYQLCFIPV

Cytochrome P450 3A4 = Cytochrome P450 3A4 (Homo sapiens, UniProt P08684);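 also: CYP3A4 tested as one member of a cytochrome P450 panel screen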
Cytochrome P450 3A4, sequence (P08684 whole entry): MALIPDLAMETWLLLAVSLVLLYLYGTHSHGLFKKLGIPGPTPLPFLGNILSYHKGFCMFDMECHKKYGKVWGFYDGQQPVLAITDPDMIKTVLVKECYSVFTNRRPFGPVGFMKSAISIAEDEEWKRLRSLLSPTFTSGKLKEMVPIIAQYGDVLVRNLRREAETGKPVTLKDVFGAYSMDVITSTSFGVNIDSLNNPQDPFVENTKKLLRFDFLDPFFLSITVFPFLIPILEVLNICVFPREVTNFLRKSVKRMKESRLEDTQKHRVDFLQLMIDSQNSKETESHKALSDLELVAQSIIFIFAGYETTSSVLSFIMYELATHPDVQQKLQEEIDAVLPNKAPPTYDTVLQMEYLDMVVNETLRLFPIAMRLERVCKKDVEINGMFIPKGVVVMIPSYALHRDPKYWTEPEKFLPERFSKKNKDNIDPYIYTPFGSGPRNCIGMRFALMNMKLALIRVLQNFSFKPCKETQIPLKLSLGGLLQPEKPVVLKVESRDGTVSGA

Cytochrome P450 2D6 = Cytochrome P450 2D6 (Homo sapiens, UniProt P10635);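 also: CYP2D6 member of a cytochrome P450 panel assay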
Cytochrome P450 2D6, sequence (P10635 whole entry): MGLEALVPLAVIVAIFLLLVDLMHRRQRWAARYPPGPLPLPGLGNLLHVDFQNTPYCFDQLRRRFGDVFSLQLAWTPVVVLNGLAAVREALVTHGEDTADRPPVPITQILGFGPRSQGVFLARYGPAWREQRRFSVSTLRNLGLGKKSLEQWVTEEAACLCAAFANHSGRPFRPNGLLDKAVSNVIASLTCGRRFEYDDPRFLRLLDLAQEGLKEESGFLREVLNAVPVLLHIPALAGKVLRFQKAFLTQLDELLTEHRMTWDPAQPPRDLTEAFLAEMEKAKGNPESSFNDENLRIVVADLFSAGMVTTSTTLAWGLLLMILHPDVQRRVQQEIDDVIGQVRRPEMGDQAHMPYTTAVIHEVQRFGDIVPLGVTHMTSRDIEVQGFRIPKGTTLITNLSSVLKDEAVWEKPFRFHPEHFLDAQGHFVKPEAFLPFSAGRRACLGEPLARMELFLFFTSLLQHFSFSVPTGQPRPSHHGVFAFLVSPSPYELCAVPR

[1] = target: UDP-galactopyranose mutase (Mycobacterium tuberculosis, UniProt P9WIQ1); experiment: Inhibitors of Mycobacterium tuberculosis UDP-galactopyranose mutase (UGM) enzyme Measured in Biochemical System Using Plate Reader - 2105-02_Inhibitor_Dose_CherryPick_Activity. [Related pubchem assays (depositor defined):AID504439]
UDP-galactopyranose mutase, sequence (P9WIQ1 whole entry, the tested form may be a part): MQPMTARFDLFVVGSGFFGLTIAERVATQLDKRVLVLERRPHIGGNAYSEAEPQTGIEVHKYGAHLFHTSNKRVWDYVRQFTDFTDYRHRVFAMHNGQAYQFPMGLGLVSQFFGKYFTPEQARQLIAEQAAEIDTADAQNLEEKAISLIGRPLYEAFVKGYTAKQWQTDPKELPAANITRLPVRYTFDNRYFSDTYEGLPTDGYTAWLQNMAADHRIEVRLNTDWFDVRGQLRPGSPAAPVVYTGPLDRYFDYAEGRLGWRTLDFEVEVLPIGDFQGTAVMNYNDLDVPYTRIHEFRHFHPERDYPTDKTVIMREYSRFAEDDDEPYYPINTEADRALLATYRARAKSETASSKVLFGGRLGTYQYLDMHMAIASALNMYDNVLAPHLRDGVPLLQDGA

[2] = target: T2, RNA-binding protein pos-1 (Caenorhabditis elegans, UniProt G5EF15); experiment: disruptors of C. elegans POS-1 RNA interaction – biochemical, fluorescence polarization, dose response (AID 1964);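 also: purified POS-1 fused to maltose binding protein made in E. coli; potency of compounds blocking POS-1 binding to fluorescent RNA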
T2 sequence (G5EF15 whole entry): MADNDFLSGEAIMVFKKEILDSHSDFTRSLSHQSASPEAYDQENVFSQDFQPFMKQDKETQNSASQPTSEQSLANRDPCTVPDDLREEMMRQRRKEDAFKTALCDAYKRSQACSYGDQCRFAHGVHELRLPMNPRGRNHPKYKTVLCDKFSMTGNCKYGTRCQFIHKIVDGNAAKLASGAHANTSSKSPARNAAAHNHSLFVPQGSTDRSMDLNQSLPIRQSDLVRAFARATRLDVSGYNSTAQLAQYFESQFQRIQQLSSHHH

[3] = target: T3, Endoribonuclease toxin MazF (Escherichia coli K-12, UniProt P0AE70); experiment: activation of MazEF endoribonuclease cleavage – biochemical, fluorescence, single-stranded RNA substrate, uHTS hits, dose response (AID 588481); assay type: functional
T3 sequence (P0AE70 whole entry): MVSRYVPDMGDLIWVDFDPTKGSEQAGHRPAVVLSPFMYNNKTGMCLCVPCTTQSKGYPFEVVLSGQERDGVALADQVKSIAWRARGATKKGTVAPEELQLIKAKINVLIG

[4] = target: T3, Endoribonuclease toxin MazF; experiment: substrate-only fluorescence increase artefacts – biochemical, single-stranded RNase substrate, counter-screen for MazEF activator project, dose response (AID 588502); assay type: functional
[5] = target: T4, Zinc finger protein mex-5 (Caenorhabditis elegans, UniProt Q9XUB2); experiment: potency of MEX-5 RNA-binding blockers – biochemical, C. elegans, fluorescence polarization, dose response (AID 1960)
T4 sequence (Q9XUB2 whole entry): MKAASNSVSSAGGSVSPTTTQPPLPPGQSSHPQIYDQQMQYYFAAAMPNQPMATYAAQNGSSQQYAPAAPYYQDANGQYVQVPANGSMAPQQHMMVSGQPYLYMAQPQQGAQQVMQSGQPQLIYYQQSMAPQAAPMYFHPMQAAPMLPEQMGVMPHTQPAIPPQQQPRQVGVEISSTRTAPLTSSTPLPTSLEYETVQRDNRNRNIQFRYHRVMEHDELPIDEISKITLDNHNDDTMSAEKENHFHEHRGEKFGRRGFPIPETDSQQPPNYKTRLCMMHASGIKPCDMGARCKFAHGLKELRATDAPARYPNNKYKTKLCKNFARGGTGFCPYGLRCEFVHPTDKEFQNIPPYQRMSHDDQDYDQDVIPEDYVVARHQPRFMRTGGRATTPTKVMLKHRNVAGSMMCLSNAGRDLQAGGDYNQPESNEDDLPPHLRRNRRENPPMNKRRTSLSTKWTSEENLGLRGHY

Aspartyl aminopeptidase = target: T5, Aspartyl aminopeptidase (Plasmodium falciparum 3D7, UniProt Q8I2J3); experiment: Counterscreen for inhibitors of M1 and M17 aminopeptidases: QFRET-based biochemical high throughput dose response assay for inhibitors of the Plasmodium falciparum M18 Aspartyl Aminopeptidase (PFM18AAP). [Related PubChem assays: 1619 (Screening assay (M17LAP inhibitors).), 1445 (Screening assay (M1AAP inhibitors).)]
T5 sequence (Q8I2J3 whole entry): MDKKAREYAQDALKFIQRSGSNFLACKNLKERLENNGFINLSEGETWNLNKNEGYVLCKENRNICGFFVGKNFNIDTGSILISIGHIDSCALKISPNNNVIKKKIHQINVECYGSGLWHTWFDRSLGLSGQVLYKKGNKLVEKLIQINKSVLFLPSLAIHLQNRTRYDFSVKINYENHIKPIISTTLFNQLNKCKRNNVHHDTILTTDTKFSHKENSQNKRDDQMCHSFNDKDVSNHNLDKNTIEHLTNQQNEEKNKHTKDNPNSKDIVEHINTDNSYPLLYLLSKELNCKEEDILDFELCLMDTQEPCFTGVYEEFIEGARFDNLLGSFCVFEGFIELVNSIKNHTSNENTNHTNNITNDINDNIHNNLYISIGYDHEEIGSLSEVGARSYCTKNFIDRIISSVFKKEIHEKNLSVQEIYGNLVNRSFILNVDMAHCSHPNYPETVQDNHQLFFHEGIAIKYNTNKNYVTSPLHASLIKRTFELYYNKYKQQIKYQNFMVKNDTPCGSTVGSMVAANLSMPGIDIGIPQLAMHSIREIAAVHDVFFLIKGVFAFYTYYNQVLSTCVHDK

Escherichia coli = experiment: microbe, parasite or virus in culture
Procathepsin L = Procathepsin L (Homo sapiens, UniProt P07711); experiment: CTSL1 protease inhibition – biochemical, QFRET, 1536-well, counter-screen for M1/M17 aminopeptidase inhibitor project, dose response (AID 2214)
Procathepsin L, sequence (P07711 whole entry): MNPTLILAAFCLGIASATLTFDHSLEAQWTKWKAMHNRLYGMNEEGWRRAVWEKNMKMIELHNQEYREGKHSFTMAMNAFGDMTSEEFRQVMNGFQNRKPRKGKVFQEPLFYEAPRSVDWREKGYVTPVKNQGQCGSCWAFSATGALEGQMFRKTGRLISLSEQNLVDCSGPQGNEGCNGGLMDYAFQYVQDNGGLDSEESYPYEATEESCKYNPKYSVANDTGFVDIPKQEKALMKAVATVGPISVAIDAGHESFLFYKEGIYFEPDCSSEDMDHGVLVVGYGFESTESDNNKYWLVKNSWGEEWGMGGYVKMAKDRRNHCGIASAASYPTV

Phosphomannomutase 2 = Phosphomannomutase 2 (Homo sapiens, UniProt O15305); experiment: Counter screen SAR assay for PMM2 inhibitors via a fluorescence intensity assay. [Related pubchem assays (depositor defined):AID1545, AID1574]
Phosphomannomutase 2, sequence (O15305 whole entry): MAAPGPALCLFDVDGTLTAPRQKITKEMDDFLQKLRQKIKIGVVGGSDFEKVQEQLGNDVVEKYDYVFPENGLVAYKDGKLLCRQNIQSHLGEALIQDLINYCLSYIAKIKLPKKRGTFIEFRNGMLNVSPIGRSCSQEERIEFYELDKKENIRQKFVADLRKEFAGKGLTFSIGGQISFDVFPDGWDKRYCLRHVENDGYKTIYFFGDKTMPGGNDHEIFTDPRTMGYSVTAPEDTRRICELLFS

[6] = target: DNA dC->dU-editing enzyme APOBEC-3A (Homo sapiens, UniProt P31941); experiment: A3A deaminase inhibition for selectivity – biochemical, dose response (AID 504722); assay type: functional
DNA dC->dU-editing enzyme APOBEC-3A, sequence (P31941 whole entry): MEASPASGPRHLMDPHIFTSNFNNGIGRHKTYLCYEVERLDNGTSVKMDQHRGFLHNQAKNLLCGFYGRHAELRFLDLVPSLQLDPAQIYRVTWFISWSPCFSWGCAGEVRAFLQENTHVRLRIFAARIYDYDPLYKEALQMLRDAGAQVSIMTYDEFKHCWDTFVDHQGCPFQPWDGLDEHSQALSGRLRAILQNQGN

Leucine aminopeptidase = target: T6, Leucine aminopeptidase (Plasmodium falciparum 3D7, UniProt Q8IL11); experiment: P. falciparum M17LAP inhibitors, primary screen, biochemical, fluorogenic H-Leu-NHMec substrate, 1536-well (AID 1619); assay type: functional
T6 sequence (Q8IL11 whole entry): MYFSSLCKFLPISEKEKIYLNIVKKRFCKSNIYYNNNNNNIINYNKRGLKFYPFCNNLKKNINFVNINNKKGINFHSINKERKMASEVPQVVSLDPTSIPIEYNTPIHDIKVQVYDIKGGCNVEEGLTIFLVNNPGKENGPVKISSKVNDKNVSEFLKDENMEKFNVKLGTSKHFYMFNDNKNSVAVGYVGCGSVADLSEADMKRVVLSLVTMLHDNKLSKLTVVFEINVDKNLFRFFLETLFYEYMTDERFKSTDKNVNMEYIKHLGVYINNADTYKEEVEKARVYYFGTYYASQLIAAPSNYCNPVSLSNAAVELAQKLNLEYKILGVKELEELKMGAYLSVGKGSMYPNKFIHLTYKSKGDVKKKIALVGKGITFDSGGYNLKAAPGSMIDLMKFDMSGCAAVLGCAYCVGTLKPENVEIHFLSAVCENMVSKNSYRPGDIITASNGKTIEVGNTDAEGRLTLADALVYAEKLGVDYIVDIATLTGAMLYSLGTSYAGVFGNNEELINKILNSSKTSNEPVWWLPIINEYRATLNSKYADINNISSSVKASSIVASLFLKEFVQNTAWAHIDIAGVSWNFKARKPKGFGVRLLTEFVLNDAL

[7] = target: T7, Mannose-6-phosphate isomerase (Homo sapiens, UniProt P34949); experiment: phosphomannose isomerase inhibition – biochemical, fluorescence intensity, confirmation (AID 1535)
T7 sequence (P34949 whole entry): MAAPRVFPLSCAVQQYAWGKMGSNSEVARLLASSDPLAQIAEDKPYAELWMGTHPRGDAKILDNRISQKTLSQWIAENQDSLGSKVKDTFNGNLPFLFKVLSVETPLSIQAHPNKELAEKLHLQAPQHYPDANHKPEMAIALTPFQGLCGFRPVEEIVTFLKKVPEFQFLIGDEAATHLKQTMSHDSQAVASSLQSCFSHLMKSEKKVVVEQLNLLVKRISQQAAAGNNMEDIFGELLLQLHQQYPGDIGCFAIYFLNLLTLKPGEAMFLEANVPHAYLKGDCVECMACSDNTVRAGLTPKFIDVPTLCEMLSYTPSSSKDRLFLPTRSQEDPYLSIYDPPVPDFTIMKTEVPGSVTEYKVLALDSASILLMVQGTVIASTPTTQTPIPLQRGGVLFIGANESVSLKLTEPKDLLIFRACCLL

Q: How did the AC50 (Cytochrome P450 1A2) turn out when `CCOC(=O)[C@H](CCc1ccccc1)N[C@@H](C)C(=O)N1[C@H](C(=O)O)C[C@H]2CCC[C@@H]21` was run?
A: inactive

Q: What about the AC50 (Cytochrome P450 2C19) of the same compound?
A: inactive

Q: What does the source list for `O=C(c1cccc(F)c1)N1CCC2(CC1)CCN(c1ccccn1)CC2`?
A: AC50 (Cytochrome P450 3A4): inconclusive; AC50 (Cytochrome P450 2D6): 20 µM (inconclusive)

Q: What does the source list for `Cc1ccc(Cl)c2c(N=Nc3ccccc3)c(O)[nH]c12`?
A: AC50 [1]: 113 µM (active); EC50 [2]: 18.6 µM (active); EC50 [3]: 19.1 µM (active); EC50 [4]: 8.15 µM (active); EC50 [5]: > 300 µM (inconclusive)

Q: For `Sc1n[nH]c(-c2ccccc2Br)n1`, which IC50 (Aspartyl aminopeptidase) is on record?
A: 19.3 µM (not active)

Q: And the AC50 (Escherichia coli)?
A: 30.2 µM (active)

Q: What about the IC50 (Procathepsin L) of the same compound?
A: > 59.6 µM (not active)

Q: What about the IC50 (Phosphomannomutase 2) of the same compound?
A: > 100 µM (inactive)

Q: And the IC50 [6]?
A: > 100 µM (inactive)

Q: And the IC50 (Leucine aminopeptidase)?
A: 4.67 µM (active)

Q: What about the IC50 [7] of the same compound?
A: 37.6 µM (active)
